From patent publication US20220056043A1, “NITROGEN-CONTAINING FUSED CYCLIC COMPOUND, PREPARATION METHOD THEREFOR AND USE THEREOF” (SICHUAN KELUN-BIOTECH BIOPHARMACEUTICAL CO., LTD., priority 2019, published 2022)

Assays:
CYP2D6 = target: T1, CYP2D6 (Homo sapiens, UniProt P10635); assay: CYP enzyme inhibition test, Vivid CYP2D6 Cyan Screening Kit; format: in vitro ADME; conditions: for inhibitory effect on CYP2D6: conclusion in words
T1 construct: purchased
Experimental: (§1) Experimental Example 6: CYP Enzyme Inhibition Test CYP450 is the most important enzyme system in drug metabolism. The enzymes involved in metabolism interact with drugs, and the most important ones are CYP1A2, CYP2D6 and CYP3A4. P450-Glo™ CYP1A2 Screening System, Vivid® CYP2D6 Cyan Screening Kit and Vivid® CYP3A4 Red Screening Kit were used in this test, and the inhibitory effects of the compounds on CYP1A2, CYP2D6 and CYP3A4 were determined according to the instructions of the kit.

CYP1A2 = target: T2, CYP1A2 (Homo sapiens, UniProt P05177); assay: CYP enzyme inhibition test, P450-Glo CYP1A2 Screening System; format: in vitro ADME; conditions: for inhibitory effect on CYP1A2: conclusion in words
T2 construct: purchased
T2 sequence (P05177 1-516): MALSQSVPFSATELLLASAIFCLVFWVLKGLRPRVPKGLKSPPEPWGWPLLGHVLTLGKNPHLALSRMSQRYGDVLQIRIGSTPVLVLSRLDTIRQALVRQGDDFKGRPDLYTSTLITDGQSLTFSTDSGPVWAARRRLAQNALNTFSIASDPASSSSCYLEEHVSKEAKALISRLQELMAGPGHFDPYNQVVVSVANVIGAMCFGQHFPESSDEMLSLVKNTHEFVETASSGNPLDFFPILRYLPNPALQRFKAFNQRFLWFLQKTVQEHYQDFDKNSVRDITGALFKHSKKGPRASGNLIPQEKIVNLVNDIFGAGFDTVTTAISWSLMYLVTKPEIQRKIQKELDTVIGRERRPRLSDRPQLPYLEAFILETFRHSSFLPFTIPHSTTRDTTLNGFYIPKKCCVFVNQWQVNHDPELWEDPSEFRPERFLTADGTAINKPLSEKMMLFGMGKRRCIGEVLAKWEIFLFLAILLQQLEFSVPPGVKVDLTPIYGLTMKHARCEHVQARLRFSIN
Experimental: as §1

hERG potassium channel [1] = target: T3, hERG potassium channel (Homo sapiens, UniProt Q12809); assay: in vitro
T3 sequence (Q12809 whole entry): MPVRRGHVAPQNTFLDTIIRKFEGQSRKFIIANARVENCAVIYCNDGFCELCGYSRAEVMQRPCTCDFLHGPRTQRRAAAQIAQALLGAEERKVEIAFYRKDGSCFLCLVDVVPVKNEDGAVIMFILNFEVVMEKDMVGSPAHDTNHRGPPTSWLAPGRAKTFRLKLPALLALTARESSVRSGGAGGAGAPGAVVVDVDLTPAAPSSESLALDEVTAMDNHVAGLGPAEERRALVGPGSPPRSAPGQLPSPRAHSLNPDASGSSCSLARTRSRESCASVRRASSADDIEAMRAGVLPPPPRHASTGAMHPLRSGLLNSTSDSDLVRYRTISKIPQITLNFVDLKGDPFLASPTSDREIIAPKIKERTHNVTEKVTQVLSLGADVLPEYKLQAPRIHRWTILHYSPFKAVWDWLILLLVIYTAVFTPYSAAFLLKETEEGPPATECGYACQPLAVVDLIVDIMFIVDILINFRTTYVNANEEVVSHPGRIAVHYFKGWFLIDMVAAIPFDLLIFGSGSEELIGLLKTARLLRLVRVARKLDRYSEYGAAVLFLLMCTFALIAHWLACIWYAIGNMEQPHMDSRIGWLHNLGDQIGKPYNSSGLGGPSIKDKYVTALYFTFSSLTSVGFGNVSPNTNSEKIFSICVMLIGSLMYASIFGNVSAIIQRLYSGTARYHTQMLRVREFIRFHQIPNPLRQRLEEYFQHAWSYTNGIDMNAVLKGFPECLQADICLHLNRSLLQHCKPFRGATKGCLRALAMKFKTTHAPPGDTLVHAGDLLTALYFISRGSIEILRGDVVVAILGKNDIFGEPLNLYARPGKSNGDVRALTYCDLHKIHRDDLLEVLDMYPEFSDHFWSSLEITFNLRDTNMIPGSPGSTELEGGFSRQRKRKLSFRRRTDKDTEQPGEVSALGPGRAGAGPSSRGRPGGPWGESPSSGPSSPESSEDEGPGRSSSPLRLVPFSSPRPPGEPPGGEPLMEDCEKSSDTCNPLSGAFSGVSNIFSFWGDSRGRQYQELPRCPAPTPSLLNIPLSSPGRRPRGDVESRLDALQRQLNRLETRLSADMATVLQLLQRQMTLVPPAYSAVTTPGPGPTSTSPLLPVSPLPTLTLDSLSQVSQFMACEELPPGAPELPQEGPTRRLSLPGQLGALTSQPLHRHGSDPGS

hERG potassium channel [2] = target: T3, hERG potassium channel; assay: cell-based
hERG potassium channel [3] = target: T3, hERG potassium channel

T1 sequence (P10635 whole entry): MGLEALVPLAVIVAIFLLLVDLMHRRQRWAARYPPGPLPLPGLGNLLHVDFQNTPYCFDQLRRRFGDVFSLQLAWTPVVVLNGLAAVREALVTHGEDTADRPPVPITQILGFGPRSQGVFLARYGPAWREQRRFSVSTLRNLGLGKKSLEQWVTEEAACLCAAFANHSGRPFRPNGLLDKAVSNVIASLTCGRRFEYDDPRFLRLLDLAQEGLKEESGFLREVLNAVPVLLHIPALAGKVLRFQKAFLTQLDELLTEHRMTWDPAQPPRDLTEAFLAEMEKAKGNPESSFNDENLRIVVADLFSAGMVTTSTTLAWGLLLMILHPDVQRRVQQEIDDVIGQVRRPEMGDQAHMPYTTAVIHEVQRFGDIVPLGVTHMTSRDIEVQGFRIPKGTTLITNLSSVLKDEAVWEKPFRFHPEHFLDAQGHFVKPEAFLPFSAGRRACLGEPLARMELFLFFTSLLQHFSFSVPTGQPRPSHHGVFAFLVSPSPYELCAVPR

Compound	IC50 (CYP2D6) [µM]	inhibitory effect on CYP2D6 (CYP2D6)	IC50 (CYP1A2) [µM]	inhibitory effect on CYP1A2 (CYP1A2)	inhibition at 10 μM (hERG potassium channel [1]) [%]	IC50 (hERG potassium channel [2]) [µM]	inhibitory effect on hERG (hERG potassium channel [3])
C[C@@H]1CN(CCNc2cc(N)nc3cc(-c4ccn[nH]4)sc23)C[C@@H](C)O1 [Compound 124, N^7-(2-((2R,6R)-2,6-dimethylmorpholino)ethyl)-2-(1H-pyrazol-5-yl)thieno[3,2-b]pyridine-5,7-diamine]	> 10	no apparent inhibitory effects	> 10	no apparent inhibitory effects	–	–	–
Nc1cc(N[C@@H]2CC[C@@H](O)C2)c2sc(-c3ccn[nH]3)cc2n1 [Compound 30, (1R,3R)-3-((5-amino-2-(1H-pyrazol-5-yl)thieno[3,2-b]pyridin-7-yl)amino)cyclopentanol]	–	–	–	–	1.91 ± 1.4	> 10	no apparent inhibitory effect
C[C@@H](CCO)Nc1cc(N)nc2cc(-c3ccn[nH]3)sc12 [Compound 125, (S)-3-((5-amino-2-(1H-pyrazol-5-yl)thieno[3,2-b]pyridin-7-yl)amino)butanol]	> 10	no apparent inhibitory effects	> 10	no apparent inhibitory effects	–	–	–
